ChEMBL document CHEMBL6177982, “Structural Optimization of Pyrazole Compounds as Hsp90 Regulators with Enhanced Antitumor Activity” (J Med Chem, 2025)
Calls of active or inactive are those of the source. No cut-off for these calls is given here.

Assays:
[1] = Selectivity ratio of IC50 for antiproliferative activity against CDC37 knockout human HCT-116 cells to IC50 for antiproliferative activity against human HCT-116 cells; format: functional
[2] = target: T1, Heat shock protein HSP 90-beta/Hsp90 co-chaperone Cdc37 (Homo sapiens) (UniProt P08238+Q16543); assay: Inhibition of His-tagged HSP90(unknown origin)/GST-tagged CDC37 (unknown origin) protein-protein interaction at 100 uM preincubated with HSP90 for 1 hrs followed by CDC37 addition and measured after 1 hrs by HTRF assay relative to control; format: protein-complex assay
[3] = Permeability of compound at pH 7.4 incubated for 4 hrs by PAMPA based UV analysis; format: ADME; conditions: read-out: permeability
[4] = Stability of compound in simulated gastric fluid at 100 uM incubated for 12 hrs; format: physicochemical; conditions: simulated gi fluid
[5] = Metabolic stability in rat liver microsomes assessed as terminal elimination half-life at 1 uM preincubated for 5 mins followed by NADPH addition and measured up to 120 mins by LC-MS/MS analysis; format: ADME, Microsome; conditions: time < 125 min, read-out: LambdaZ (converted)
[6] = Metabolic stability in rat liver microsomes assessed as clearance at 1 uM preincubated for 5 mins followed by NADPH addition and measured up to 120 mins by LC-MS/MS analysis; format: ADME, Microsome; conditions: time < 125 min, read-out: CLH
[7] = Metabolic stability in rat liver microsomes assessed as parent compound remaining at 1 uM preincubated for 5 mins followed by NADPH addition and measured after 30 mins by LC-MS/MS analysis; format: ADME, Microsome; conditions: time 35 min, read-out: Stability
[8] = Tmax in male Sprague-Dawley rat at 1 mg/kg, iv by LC-MS/MS analysis; format: ADME, organism-based; conditions: in vivo
[9] = Half-life in male Sprague-Dawley rat at 1 mg/kg, iv by LC-MS/MS analysis; format: ADME, organism-based; conditions: in vivo
[10] = Half-life in male Sprague-Dawley rat at 5 mg/kg, ip by LC-MS/MS analysis; format: ADME, organism-based; conditions: in vivo
[11] = Clearance in male Sprague-Dawley rat at 5 mg/kg, ip by LC-MS/MS analysis; format: ADME, organism-based; conditions: in vivo
[12] = Bioavailability in male Sprague-Dawley rat at 5 mg/kg, ip by LC-MS/MS analysis; format: ADME, organism-based; conditions: in vivo
[13] = Tmax in male Sprague-Dawley rat at 10 mg/kg, IG by LC-MS/MS analysis; format: ADME, organism-based; conditions: in vivo, po
[14] = Apparent volume of distribution in male Sprague-Dawley rat at 10 mg/kg, IG by LC-MS/MS analysis; format: ADME, organism-based; conditions: in vivo, po
[15] = Clearance in male Sprague-Dawley rat at 10 mg/kg, IG by LC-MS/MS analysis; format: ADME, organism-based; conditions: in vivo, po
[16] = Bioavailability in male Sprague-Dawley rat at 10 mg/kg, IG by LC-MS/MS analysis; format: ADME, organism-based; conditions: in vivo, po
[17] = target: Heat shock protein HSP90 (Homo sapiens) (UniProt P07900+P08238); assay: Covalent binding affinity to wildtype His-tagged C-terminal HSP90 (unknown origin) assessed as two phase melting curve at 100 uM incubated for 4 hrs by SYPRO fluorescent dye based thermal shift assay; format: protein assay
[18] = test system: HCT-116; assay: Induction of AKT degradation in human HCT-116 cells incubated for 24 hrs by Western blot analysis; format: cell-based; conditions: dose 0.1-5 µM
[19] = test system: HCT-116; assay: Inhibition of Myc-tagged HSP90 (unknown origin)/HSF1 (unknown origin) protein-protein interaction transfected in human HCT-116 cells at 1 to 5 uM incubated for 12 hrs by co-immunoprecipitation analysis; format: cell-based; conditions: dose 1-5 µM
[20] = test system: HCT-116; assay: Inhibition of Myc-tagged HSP90 C598A mutant (unknown origin)/CDK4 (unknown origin) protein-protein interaction transfected in human HCT-116 cells at 1 to 5 uM incubated for 12 hrs by co-immunoprecipitation analysis; format: cell-based; conditions: dose 1-5 µM
[21] = target: T1, Heat shock protein HSP 90-beta/Hsp90 co-chaperone Cdc37 (Homo sapiens); assay: Inhibition of Myc-tagged HSP90 (unknown origin)/CDC37 (unknown origin) protein-protein interaction transfected in human HCT-116 cells incubated for 12 hrs by co-immunoprecipitation analysis; format: cell-based; conditions: dose 0.5-5 µM
[22] = test system: HT-29; assay: Antiproliferative activity against human HT-29 cells assessed as inhibition of cell proliferation incubated for 72 hrs by MTT assay; format: functional, cell-based; conditions: HT-29, 72 h
[23] = test system: SK-BR-3; assay: Antiproliferative activity against human SK-BR-3 cells assessed as inhibition of cell proliferation incubated for 72 hrs by MTT assay; format: functional, cell-based; conditions: SK-BR-3, 72 h
[24] = test system: MCF7; assay: Antiproliferative activity against human MCF7 cells assessed as inhibition of cell proliferation incubated for 72 hrs by MTT assay; format: functional, cell-based; conditions: MCF7, 72 h
[25] = test system: CT26; assay: Antiproliferative activity against mouse CT26 cells assessed as inhibition of cell proliferation incubated for 72 hrs by MTT assay; format: functional, cell-based; conditions: CT26, 72 h
[26] = test system: HCT-116; assay: Antiproliferative activity against human HCT-116 cells assessed as inhibition of cell proliferation incubated for 48 hrs by MTT assay; format: functional, cell-based; conditions: HCT-116, 48 h
[27] = Toxicity in female Balb/c nude mouse xenografted with human HCT-116 cells assessed as effect on body weight at 5 to 30 mg/kg, ip administered every two days for 14 days; format: organism-based; conditions: in vivo, 336 h, dose 5-30 mg/kg, time 14 day
[28] = test system: Mus musculus; assay: In vivo induction of CDK4 degradation in female Balb/c nude mouse xenografted with human HCT-116 cells assessed as decrease in CDK4 protein level in tumor at 5 to 30 mg/kg, ip administered every two days for 14 days by Western blot analysis; format: functional, organism-based; conditions: dose 5-30 mg/kg, time 14.0 day
[29] = test system: Mus musculus; assay: Upregulation of HSP90 protein level in female Balb/c mouse tumor xenografted with human HCT-116 cells at 5 to 30 mg/kg, ip administered every two days for 14 days by Western blot analysis; format: functional, organism-based; conditions: dose 5-30 mg/kg, time 14.0 day
[30] = Toxicity in female Balb/c nude mouse xenografted with human HCT-116 cells assessed as effect on heart weight at 5 to 30 mg/kg, ip administered every two days for 14 days; format: organism-based; conditions: in vivo, 336 h, dose 5-30 mg/kg, time 14 day
[31] = Toxicity in female Balb/c nude mouse xenografted with human HCT-116 cells assessed as effect on liver weight at 5 to 30 mg/kg, ip administered every two days for 14 days; format: organism-based; conditions: in vivo, 336 h, dose 5-30 mg/kg, time 14 day
[32] = Toxicity in female Balb/c nude mouse xenografted with human HCT-116 cells assessed as effect on spleen weight at 5 to 30 mg/kg, ip administered every two days for 14 days; format: organism-based; conditions: in vivo, 336 h, dose 5-30 mg/kg, time 14 day
[33] = Toxicity in female Balb/c nude mouse xenografted with human HCT-116 cells assessed as effect on lung weight at 5 to 30 mg/kg, ip administered every two days for 14 days; format: organism-based; conditions: in vivo, 336 h, dose 5-30 mg/kg, time 14 day
[34] = Toxicity in female Balb/c nude mouse xenografted with human HCT-116 cells assessed as pathological changes in heart at 5 to 30 mg/kg, ip administered every two days for 14 days by H and E staining based analysis; format: organism-based; conditions: in vivo, 336 h, dose 5-30 mg/kg, time 14 day
[35] = Toxicity in female Balb/c nude mouse xenografted with human HCT-116 cells assessed as pathological changes in lung at 5 to 30 mg/kg, ip administered every two days for 14 days by H and E staining based analysis; format: organism-based; conditions: in vivo, 336 h, dose 5-30 mg/kg, time 14 day
[36] = Toxicity in female Balb/c nude mouse xenografted with human HCT-116 cells assessed as pathological changes in kidney at 5 to 30 mg/kg, ip administered every two days for 14 days by H and E staining based analysis; format: organism-based; conditions: in vivo, 336 h, dose 5-30 mg/kg, time 14 day

O=S(=O)(/C=C/c1cn(-c2ccccc2)nc1-c1cccnc1)c1ccccc1
Ratio IC50 [1]: >50 | inhibition [2]: 92.9% | Papp at 4 h [3]: 42.6 ×10⁻⁶ cm/s | Stability [4]: Stable | half-life at 1 µM [5]: 25.2 min | microsomal CLint at 1 µM [6]: 55 µL/min/mg | remaining at 0.5 h, 1 µM [7]: 58% | Tmax [8]: 1.02 min | half-life [9]: 50.4 min | half-life [10]: 82.2 min | CL/F [11]: 12.2 mL/min/kg | bioavailability [12]: 92.5% | Tmax [13]: 52.8 min | Vz [14]: 3.18 L/kg | CL/F [15]: 18 mL/min/kg | bioavailability [16]: 67.2% | Activity [17]: Active | Activity [18]: Dose-dependent-effect | inhibition [19]: inactive | inhibition [20]: inactive | inhibition [21]: Dose-dependent-effect | IC50 [22]: 2020 nM | IC50 [23]: 1990 nM | IC50 [24]: 2340 nM | IC50 [25]: 1970 nM | IC50 [26]: 4180 nM | Activity [27]: Non-toxic | Activity [28]: Active | Activity [29]: inactive | Activity [30]: Non-toxic | Activity [31]: Non-toxic | Activity [32]: Non-toxic | Activity [33]: Non-toxic | Activity [34]: Non-toxic | Activity [35]: Non-toxic | Activity [36]: Non-toxic
